Assay [1] relates to hyperphosphorylated NS5A (p58) in HB68 cells. Nature of the assay: NS5A hyperphosphorylation assay (radiolabelling, immunoprecipitation, SDS-PAGE). The assay is classed as cell-based, Hepatitis C virus. The note with it: 5 μM; for formation of the hyperphosphorylated form of NS5A (p58) / NS5A phosphorylation: 35S-methionine or 32P-orthophosphate labelling. Here is the method: The presence of hyperphosphorylated NS5A (p58) was evaluated in Huh7-HB68 cells. Proteins were labeled either with ^35S-methionine (lanes 2-5) or with ^32P-orthophosphate (lanes 7-10) in the presence of DMSO (lanes 2 and 7) or with 5 μM of Compound (1) (lanes 3 and 8), Compound (2) (lanes 4 and 9) or SB203580 (lanes 5 and 10). After the radiolabelling, protein extract was prepared, NS5A was immunoprecipitated and proteins were loaded on a 7.5% SDS-PAGE and autoradiographed. The sizes of molecular weight marker proteins are indicated in lanes 1 and 6.
Inhibition of NS5A hyperphosphorylation in intact cells was measured by determining the amount of hyperphosphorylated NS5A (p58) in cells expressing HCV NS5A in the context of a polyprotein comprising at least NS3, NS4A, NS4B, and NS5A (Neddermann et al., J Virol 73, 9984-9991, 1999). […] HBI10 and HB68 are Huh-7 derived-cell lines described in WO2002/059321.
Hyperphosphorylated NS5A was detected as a protein that i) migrates with an apparent molecular weight of about 58 kDa in SDS PAGE, and ii) is immunoreactive with anti-NS5A antibodies. Thus, the amount of hyperphosphorylated NS5A was detected by immunoprecipitation of radioactively labeled proteins.
HBI10 or HB68 were cultured in Dulbecco's modified Eagle medium (DMEM) supplemented with 10% fetal bovine serum (FBS) in the presence of 0.8 mg/ml of G418 (Geneticin; Gibco/BRL). For starvation prior to radioactive protein labeling, minimal essential medium without methionine (Gibco/BRL) was used. For protein labeling, 100 μCi/ml of ^35S-labelled methionine (Promix, Amersham, Cat. No. SJQ0079, 1000 Ci/mmole) was added to the cells.
• 1. HBI10 or HB68 cells were grown to 80% confluency in 6-well plates. • 2. Compound to be tested, dissolved in DMSO at 100× concentration, was added to each well. • 3. One hour later, the medium was removed and replaced with Minimal Essential Medium without methionine. This step is omitted in the case of 32P-orthophosphate labeling. • 4. Compound to be tested, dissolved in DMSO at 100× concentration, was freshly added to each well. • 5. One hour later 100 μCi of ^35S-labelled methionine per ml of Minimal Essential Medium without methionine was added to each well for 35S-metabolic labeling together with the compound to be tested, dissolved in DMSO at 100× concentration. In the case of 32P-labelling, cells were washed once with Dulbecco's modified Eagle's medium without phosphate (ICN) and labeled for 4 hours in the same medium containing 500 μCi/ml of [32P]-orthophosphate (285.5 Ci/mg, NEN) together with the compound to be tested, dissolved in DMSO at 100× concentration. • 6. After 4 hours, cells were harvested from each well and individual cell extracts were prepared in 100 μl of cell lysis buffer. • 7. […]

Assay [2] deals with wt Con1 replicon. The class given is cell-based. Particulars: 8 μM; 4 days of incubation; wt Con1 replicon in 10A-IFN cells. A general note: Replicon systems follow genome replication, usually without infectious particles.
The subject of the next assay is wild type Con1 replicon. The assay can be described thus: Beta-lactamase gene reporter assay (BLA-assay), replicon electroporated in 10A-IFN cells. The assay is classed as cell-based, Hepatitis C virus. The note with it: 8 μM, added two hours after electroporation, 4 days of incubation. Here is the method: The BLA-assay was performed after 4 days of incubation in the presence of the compounds to be tested according to Murray et al., J Virol 77, 2928-35, 2003. Briefly, medium was removed, and cells were stained for 90 min with CCF4-AM (Aurora Biosciences Corp.) in Dulbecco's modified Eagle's medium supplemented with 25 mM HEPES, pH 8.0. For quantitation of the fraction of cells harboring bla replicons, cells were photographed by using a digital charge-coupled device color camera and green and blue cells were counted. Another method for measuring beta-lactamase activity is using a fluorescence plate reader that quantitates the amount of green (530 nm) or blue (460 nm) fluorescence emitted by cells stimulated with light of 405 nm.
A subgenomic replicon was used in which the original neomycin phosphotransferase (neo) gene was replaced by the β-lactamase (bla) gene (WO2003089672 A1 and Murray et al., J Virol 77, 2928-2935, 2003). Cells actively replicating HCV express β-lactamase and show a fluorescent blue staining after incubation with a diffusible β-lactamase substrate (BLA-assay). Replicon RNA was electroporated in 10A-IFN cells and compounds were added at a concentration of 8 μM two hours after electroporation. The BLA-assay was performed after 4 days of incubation in the presence of the compounds to be tested according to Murray et al., J Virol 77, 2928-35, 2003. Briefly, medium was removed, and cells were stained for 90 min with CCF4-AM (Aurora Biosciences Corp.) in Dulbecco's modified Eagle's medium supplemented with 25 mM HEPES, pH 8.0. For quantitation of the fraction of cells harboring bla replicons, cells were photographed by using a digital charge-coupled device color camera and green and blue fluorescent cells were counted. Alternatively, fluorescence was measured by using a CytoFluor 4000 fluorescence plate reader.
The control compound SB203580 had no effect on HCV replication.

The subject of assay [3] is Con1 replicon carrying the adaptive mutation A2199T (AT). The class given is cell-based, Hepatitis C virus. Particulars: AT replicon (high amounts of hyperphosphorylated NS5A); 10A-IFN cells; 4 days; Cell-ELISA; read-out: IC50, inhibition of HCV replication.
In assay [4] the test system is replicon m17 (E1202G in NS3). The class given is cell-based. The note with it: 8 μM; 4 days of incubation; replicon m17 in 10A-IFN cells.
In assay [5] the test system is subgenomic replicons with the synergistic mutation in NS3 (m17). Nature of the assay: HCV-specific RNA by real-time reverse transcription PCR (TaqMan) in 10A-IFN cells. The assay is classed as cell-based, Hepatitis C virus. The note with it: 8 μM; 4 days; m17 replicon in 10A-IFN cells; quantitative PCR. On the procedure: (§1) RNA was transcribed from the plasmids wt, wt-GAA, m17, SA, m17/SA and m17-GAA and electroporated into 10A-IFN cells. Cells were incubated for four days without or with 8 μM of Compound (1), Compound (2) or SB203580.
(§2) (A) HCV-specific RNA analysis using quantitative RT-PCR. Total cellular RNA was extracted and HCV-specific RNA was quantified as described in Materials and Methods. On the Y-axis is shown the fold-induction with respect to the DMSO control (black bar), Compound (1) (dark grey bar), Compound (2) (light grey bar) or SB203580 (dotted bar). Replicon RNA is indicated at the bottom of the figure.
(§3) Replicon RNA was extracted from selected clones either using the Qiagen RNAeasy minikit following manufacturer instructions or as described by Chomczynski et al., 1987. Anal. Biochem. 162, 156-159. TaqMan analysis was typically performed using 10 ng of RNA in a reaction mix (TaqMan Gold RT-PCR kit, Perkin Elmer Biosystems) either with HCV specific oligos/probe (as disclosed in published International application WO02/059321) or with human beta-actin specific oligos/probe (Pre-Developed TaqMan Assay Reagents, Endogenous Control Human beta-actin, Part Number 4310881E, Applied Biosystems). PCR was performed using a Perkin Elmer ABI PRISM 7700 under the following conditions: 30 minutes at 48° C. (the RT step), 10 minutes at 95° C. and 40 cycles: 15 seconds at 95° C. and 1 minute at 60° C. Quantitative calculations were obtained using the Comparative CT Method (described in User Bulletin #2, ABI PRISM 7700 Sequence Detection System, Applied Biosystem, December 1997) considering the level of GAPDH mRNA constant. All calculations of HCV RNA are expressed as fold difference over a specific control.
(§4) A similar experiment was carried out in order to detect HCV-specific RNA using real-time reverse transcription PCR amplification (FIG. 2A). […] Compound (1) induced replication of wt Con1 replicon 6-fold as measured by quantitative PCR, whereas induction of replication by the other compounds was below background (wt). […]
On the technique in general: Real-time PCR tracks product formation cycle by cycle.

For assay [6], the system named is Con1 replicon carrying the adaptive mutation S2204I (SI). The assay is classed as cell-based, Hepatitis C virus. The note with it: SI replicon (low amounts of hyperphosphorylated NS5A); 10A-IFN cells; 4 days; Cell-ELISA; read-out: IC50, inhibition of HCV replication.
In assay [7] the test system is wt Con1 replicon. Nature of the assay: HCV-specific RNA by real-time reverse transcription PCR (TaqMan) in 10A-IFN cells. The assay is classed as cell-based, Hepatitis C virus. The note with it: 8 μM; 4 days; wt Con1 replicon in 10A-IFN cells; quantitative PCR. Here is the method:
as §1, §2, §3, §4

For `C[S+]([O-])c1ccc(-c2nc(-c3ccncc3)c(-c3ccc(F)cc3)[nH]2)cc1` (stereo not shown) [SB203580, reference compound], in assay [1], the NS5A expression result is on record as “no effect” and the “formation of the hyperphosphorylated form of NS5A (p58) / NS5A phosphorylation” value (“formation … (p58) / NS5A phosphorylation” below) was “no effect”. The “presence of NS5A by immunoblot” value with wt Con1 replicon [2] is given as “no NS5A was visible”. For the same compound, in the assay on wild type Con1 replicon, the “HCV replication (fluorescent blue cells, BLA-assay)” value (“HCV replication” below) is on record as “no effect”.

For `CN1CCC(c2nc(-c3ccncc3)c(-c3ccc(F)cc3)[nH]2)CC1` [Compound (2), 4-[5-(4-fluorophenyl)-2-(1-methylpiperidin-4-yl)-1H-imidazol-4-yl]pyridine], the figures for the IC50 in assay [3] and in assay [6] were 5 µM and 0.5 µM, respectively. Besides, the “activation of replication (NS5A by immunoblot)” value in assay [4] is “less potent activator”. Besides, in assay [5], the “fold-induction of HCV-RNA with respect to the DMSO control” value is on record as 58 fold. Moreover, the “formation … (p58) / NS5A phosphorylation” value in assay [1] is “inhibited the formation of the hyperphosphorylated form of NS5A”. The “presence of NS5A by immunoblot” value in the assay with wt Con1 replicon [2] is “no protein was visible”. Further, the “HCV replication” value in the assay with wild type Con1 replicon was “resulted in the production of fluorescent blue cells”.

For the compound `CNc1nccc(-c2[nH]c(C3CCNCC3)nc2-c2cccc(C(F)(F)F)c2)n1` [Compound (1), N-methyl-4-{2-piperidin-4-yl-4-[3-(trifluoromethyl)phenyl]-1H-imidazol-5-yl}pyrimid-2-amine], the results for the 50% inhibitory concentration (IC50) in assay [3] and in assay [6] were 5 µM and 0.5 µM, respectively. In addition, in assay [4], the “activation of replication (NS5A by immunoblot)” value is listed as “more potent”. The “fold-induction of HCV-RNA with respect to the DMSO control” value in the assay with wt Con1 replicon [7] was determined as 6 fold; in assay [5], 312 fold. The “formation … (p58) / NS5A phosphorylation” value in assay [1] is “inhibited the formation of the hyperphosphorylated form of NS5A”. In the assay on wt Con1 replicon [2], the “presence of NS5A by immunoblot” value is “NS5A could be detected”. In addition, in the assay with wild type Con1 replicon, the “HCV replication” value is recorded as “resulted in the production of fluorescent blue cells”.
